One test concerns the target T1, IKZF1 (Homo sapiens, UniProt Q13422+Q96SW2).
T1 construct: expressed in transfected cells
As to the kind of experiment: HiBiT protein tagging assay, in vitro IKZF1 degradation (HEK293). As to conditions: HEK293, 18-24 hr incubation, normalized to DMSO control; for Dmax: read-out: IKZF1 Dmax (maximum degradation at the highest concentration tested); for DC50: read-out: IKZF1 EC50. It counts as cell-based. The method, then:
(§1) In vitro degradation of IKZF1 and IKZF2 was measured using HiBiT protein tagging and detection technology (Promega).
(§2) HiBiT technology (Promega) was used to develop the quantitative assays to measure the cellular IKZFs level by tagging an 11 amino acid HiBit peptides VSGWRLFKKIS (SEQ ID NO:1) to the protein of interest. Reporter plasmids were generated by fusing a linker sequence (GSSGGSSG; SEQ ID NO:2) followed by the HiBiT tag at the C terminus of IKZF1 and IKZF2. The fusion fragments were subsequently cloned into pcDNA5 pcDNA™5/FRT/TO plasmids (Thermo Fisher, cat #V652020) downstream of the Tetracycline operator. The resulting plasmids were co-transfected with pOG44 Flp-Recombinase Expression Vector (Thermo Fisher, cat #V600520) into Flp-In™ T-REx HEK293 line (Thermo Fisher, cat #R78077) and a stable cell pool was selected by adding 100 μg/ml of Hygromycin (Thermo Fisher, cat #10687010). The reporter cell enabled Tet-On inducible reporter expression from a single copy of the integrated gene.
(§3) On Day 1, Cells were grown to ˜80% confluency in TC medium (DMEM Glutamax (Gibco10569), 10% Tet free FBS (Takara 631106), and PenStrep Glutamin (Gibco 10378)) in tissue culture flasks. Doxycycline was then added to a final concentration of 1 μg/ml to induce reporter expression at 37° C. overnight.
(§4) On Day 2, 125 nL of serially-diluted solution of testing compounds were dispensed into 384-well white solid assay plates via ECHO acoustic liquid handler. Cells were lifted by 0.25% Trypsin (Gibco 25200) then pelleted by centrifugation (Beckman Avanti J-E) at 500×g for 5 min. Cell pellets were resuspended in TC medium at the concentration of 3e5/mL and 25 μL of cell suspension were added into each well of compound-spotted plates. The plates were returned to a 37° C. incubator overnight (18-24 hr).
(§5) On Day 3, assay plates were removed from the TC incubator and 25 μL of Nano-Glo lytic detection system (Promega, cat #N3030) was added to each well. Plates were incubated at r.t. for 3 min with shaking, and luminescence was read using an Envision reader (Perkin Elmer).
(§6) All raw data was normalized to DMSO control (final concentration: 0.5%) wells as POC and plotted out for EC50 and Dmax (Maximum degradation at the highest concentration tested in the assay).

Another test deals with T2, IKZF2 (Homo sapiens, UniProt Q96SW2+Q9UKS7).
T2 construct: expressed in transfected cells
T2 sequence (Q9UKS7 1-500 isoform Q9UKS7-2): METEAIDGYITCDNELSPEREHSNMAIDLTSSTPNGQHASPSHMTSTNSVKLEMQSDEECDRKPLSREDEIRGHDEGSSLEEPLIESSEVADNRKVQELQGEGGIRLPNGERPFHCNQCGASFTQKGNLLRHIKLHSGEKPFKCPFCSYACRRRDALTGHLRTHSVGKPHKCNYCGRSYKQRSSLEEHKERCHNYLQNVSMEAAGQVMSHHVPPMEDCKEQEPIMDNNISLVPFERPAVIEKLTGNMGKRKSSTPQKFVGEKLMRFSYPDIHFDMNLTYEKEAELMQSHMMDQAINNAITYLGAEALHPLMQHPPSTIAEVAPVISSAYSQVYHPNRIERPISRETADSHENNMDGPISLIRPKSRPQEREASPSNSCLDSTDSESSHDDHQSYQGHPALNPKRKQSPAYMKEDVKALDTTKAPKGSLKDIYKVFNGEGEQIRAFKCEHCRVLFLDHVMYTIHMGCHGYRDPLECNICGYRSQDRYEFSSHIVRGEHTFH
T2 sequence (Q96SW2 whole entry): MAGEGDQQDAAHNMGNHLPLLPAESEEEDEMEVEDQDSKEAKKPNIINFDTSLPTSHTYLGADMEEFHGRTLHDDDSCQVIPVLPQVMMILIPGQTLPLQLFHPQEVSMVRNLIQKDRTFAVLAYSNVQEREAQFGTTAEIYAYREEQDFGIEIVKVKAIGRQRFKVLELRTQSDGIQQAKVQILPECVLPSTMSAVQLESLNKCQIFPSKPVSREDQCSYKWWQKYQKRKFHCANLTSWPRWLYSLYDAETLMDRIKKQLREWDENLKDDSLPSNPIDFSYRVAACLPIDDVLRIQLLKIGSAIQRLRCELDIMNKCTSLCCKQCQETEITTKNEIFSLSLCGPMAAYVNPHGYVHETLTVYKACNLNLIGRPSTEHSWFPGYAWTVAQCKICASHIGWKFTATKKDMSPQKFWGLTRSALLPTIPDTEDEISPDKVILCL
T2 sequence (Q16531 whole entry partner): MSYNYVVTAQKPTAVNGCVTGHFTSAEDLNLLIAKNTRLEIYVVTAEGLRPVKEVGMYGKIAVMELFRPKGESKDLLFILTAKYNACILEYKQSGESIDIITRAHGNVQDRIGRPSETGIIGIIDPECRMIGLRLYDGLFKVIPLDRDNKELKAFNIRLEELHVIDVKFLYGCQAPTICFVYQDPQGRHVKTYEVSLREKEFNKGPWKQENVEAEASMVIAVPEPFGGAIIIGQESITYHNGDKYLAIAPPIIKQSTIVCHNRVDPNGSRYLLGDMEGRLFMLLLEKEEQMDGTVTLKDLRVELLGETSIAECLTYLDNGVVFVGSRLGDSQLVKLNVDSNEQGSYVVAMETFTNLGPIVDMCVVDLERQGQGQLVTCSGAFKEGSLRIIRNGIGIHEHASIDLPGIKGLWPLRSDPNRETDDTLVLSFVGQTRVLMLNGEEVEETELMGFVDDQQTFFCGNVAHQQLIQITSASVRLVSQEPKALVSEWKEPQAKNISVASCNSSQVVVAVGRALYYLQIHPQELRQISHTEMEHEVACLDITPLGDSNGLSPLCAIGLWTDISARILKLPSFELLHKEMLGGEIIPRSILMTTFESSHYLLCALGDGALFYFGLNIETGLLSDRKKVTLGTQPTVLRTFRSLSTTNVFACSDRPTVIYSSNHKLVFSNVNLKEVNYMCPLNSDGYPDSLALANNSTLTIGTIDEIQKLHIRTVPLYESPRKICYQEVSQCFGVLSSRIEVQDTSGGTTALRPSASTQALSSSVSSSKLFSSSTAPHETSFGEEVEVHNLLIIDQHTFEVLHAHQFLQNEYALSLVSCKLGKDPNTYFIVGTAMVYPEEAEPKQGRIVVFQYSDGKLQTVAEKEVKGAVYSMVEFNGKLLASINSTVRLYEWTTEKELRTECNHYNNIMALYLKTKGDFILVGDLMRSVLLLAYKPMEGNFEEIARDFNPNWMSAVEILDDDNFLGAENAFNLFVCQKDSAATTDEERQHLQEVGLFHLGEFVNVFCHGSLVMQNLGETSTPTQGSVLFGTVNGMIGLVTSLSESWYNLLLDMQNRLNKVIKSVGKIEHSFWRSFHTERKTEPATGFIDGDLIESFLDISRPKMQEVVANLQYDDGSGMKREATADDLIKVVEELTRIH
As to the kind of experiment: HiBiT protein tagging assay, in vitro IKZF2 degradation (HEK293). It counts as cell-based. As to conditions: HEK293, 18-24 hr incubation, normalized to DMSO control; for Dmax: HEK293, HiBiT assay, read-out: IKZF2 Dmax (maximum degradation at the highest concentration tested); for DC50: HiBiT assay, read-out: IKZF2 EC50. As for the experimental part:
as §1, §2, §3, §4, §5, §6

T1 sequence (Q13422 whole entry): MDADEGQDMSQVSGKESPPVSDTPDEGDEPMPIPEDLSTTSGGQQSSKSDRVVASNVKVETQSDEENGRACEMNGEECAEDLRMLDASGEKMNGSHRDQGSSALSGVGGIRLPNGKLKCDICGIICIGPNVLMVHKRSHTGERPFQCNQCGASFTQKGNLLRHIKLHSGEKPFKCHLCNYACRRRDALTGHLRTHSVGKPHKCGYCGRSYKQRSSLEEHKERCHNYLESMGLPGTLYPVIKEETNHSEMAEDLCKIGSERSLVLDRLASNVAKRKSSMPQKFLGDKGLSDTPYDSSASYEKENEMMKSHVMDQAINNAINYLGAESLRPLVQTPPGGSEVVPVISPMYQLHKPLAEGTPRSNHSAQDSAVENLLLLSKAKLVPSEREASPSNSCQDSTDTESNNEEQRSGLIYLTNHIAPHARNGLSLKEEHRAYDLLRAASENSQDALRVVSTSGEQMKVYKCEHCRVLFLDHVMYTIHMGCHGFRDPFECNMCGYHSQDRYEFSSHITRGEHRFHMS
T1 sequence (Q96SW2 whole entry): as the sequence (Q96SW2 whole entry) above
T1 sequence (Q16531 whole entry partner): as the sequence (Q16531 whole entry partner) above

Take `O=C1CCC(N2Cc3cc(CN[C@H]4CCC[C@H](Cc5ccccc5)C4)ccc3C2=O)C(=O)N1` (relative stereo) [Example 11, 3-(5-((((1,3-trans)-3-benzylcyclohexyl)amino)methyl)-1-oxoisoindolin-2-yl)piperidine-2,6-dione]: on IKZF1, the Dmax is 67% and the DC50 was 25 nM. Besides, on IKZF2, the Dmax was 68% and the DC50 was 81 nM.
For `O=C1CCC(N2Cc3cc(CN[C@H]4CCC[C@@H](Cc5ccccc5)C4)ccc3C2=O)C(=O)N1` (relative stereo) [Example 12, 3-(5-((((1,3-cis)-3-benzylcyclohexyl)amino)methyl)-1-oxoisoindolin-2-yl)piperidine-2,6-dione], in that order: 95%, 3 nM, 96% and 10 nM.
The corresponding values for `O=C1CCC(N2Cc3cc(CN[C@@H]4CCCC[C@@H]4O)ccc3C2=O)C(=O)N1` (relative stereo) [Example 49, 3-(5-(((cis-2-Hydroxycyclohexyl)amino)methyl)-1-oxoisoindolin-2-yl)piperidine-2,6-dione] are 38%, 153 nM, 70% and 449 nM.
For `O=C1CCC(N2Cc3cc(CNC4CCN(Cc5ccccc5)CC4)ccc3C2=O)C(=O)N1` (stereo not shown) [Example 1, 3-(5-(((1-benzylpiperidin-4-yl)amino)methyl)-1-oxoisoindolin-2-yl)piperidine-2,6-dione], the Dmax on IKZF1 turned out to be 51%; at IKZF2, 67%. Besides, the values for the DC50 on IKZF1 and at IKZF2 were 255 nM and 342 nM, respectively.
The corresponding values for `O=C1CCC(N2Cc3cc(CNC4CCN(c5ccccc5)CC4)ccc3C2=O)C(=O)N1` (stereo not shown) [Example 2, 3-(1-oxo-5-(((1-phenylpiperidin-4-yl)amino)methyl)isoindolin-2-yl)piperidine-2,6-dione] are 80%, 83%, 19 nM and 58 nM.
On to `O=C1CCC(N2Cc3cc(CNC4CCN(C(=O)OCc5ccccc5)CC4)ccc3C2=O)C(=O)N1` (stereo not shown) [Example 3, benzyl 4-(((2-(2,6-dioxopiperidin-3-yl)-1-oxoisoindolin-5-yl)methyl)amino)piperidine-1-carboxylate], for which, at IKZF1, the Dmax worked out at 95% and the DC50 was found to be 7 nM. Besides, at IKZF2, the Dmax is 94% and the DC50 was determined as 39 nM.
Consider `O=C1CCC(N2Cc3cc(CNC4CCN(C(=O)NCc5ccccc5)CC4)ccc3C2=O)C(=O)N1` (stereo not shown) [Example 4, N-benzyl-4-(((2-(2,6-dioxopiperidin-3-yl)-1-oxoisoindolin-5-yl)methyl)amino)piperidine-1-carboxamide], for which, at IKZF1, the Dmax stood at 95% and the DC50 came out at 68 nM. For the same molecule, at IKZF2, the Dmax is 95% and the DC50 stood at 1700 nM.
`O=C1CCC(N2Cc3cc(CNC4CCCCC4)ccc3C2=O)C(=O)N1` (stereo not shown) [Example 5, 3-(5-((Cyclohexylamino)methyl)-1-oxoisoindolin-2-yl)piperidine-2,6-dione]: on IKZF1, the Dmax was 38% and the DC50 was 123 nM. At IKZF2, the Dmax was determined as 78% and the DC50 stood at 118 nM.
The corresponding values for `O=C1CCC(N2Cc3cc(CNC4CCOCC4)ccc3C2=O)C(=O)N1` (stereo not shown) [Example 6, 3-(1-oxo-5-(((tetrahydro-2H-pyran-4-yl)amino)methyl)isoindolin-2-yl)piperidine-2,6-dione] are 92%, 148 nM, 78% and 181 nM.
The corresponding values for `O=C1CCC(N2Cc3cc(CNC4CCC(F)(F)CC4)ccc3C2=O)C(=O)N1` (stereo not shown) [Example 7, 3-(5-(((4,4-difluorocyclohexyl)amino)methyl)-1-oxoisoindolin-2-yl)piperidine-2,6-dione] are 70%, 53 nM, 80% and 104 nM.
On to `O=C1CCC(N2Cc3cc(CNC4CCCC4)ccc3C2=O)C(=O)N1` (stereo not shown) [Example 8], for which, on IKZF1, the Dmax turned out to be 26% and the DC50 was 131 nM. In addition, at IKZF2, the Dmax came out at 55% and the DC50 stood at 143 nM.
Turning to `CC(C)NCc1ccc2c(c1)CN(C1CCC(=O)NC1=O)C2=O` (stereo not shown) [Example 9, 3-(5-((isopropylamino)methyl)-1-oxoisoindolin-2-yl)piperidine-2,6-dione], the Dmax on IKZF1 came to 51%; on IKZF2, 48%. Also, the DC50 on IKZF1 is 351 nM; on IKZF2 it was 738 nM.
For `O=C1CCC(N2Cc3cc(CNC4CCC(Cc5ccccc5)CC4)ccc3C2=O)C(=O)N1` (stereo not shown) [Example 10, 3-(5-(((4-benzylcyclohexyl)amino)methyl)-1-oxoisoindolin-2-yl)piperidine-2,6-dione], in that order: 51%, 80%, 121 nM and 117 nM.
Take `O=C1CCC(N2Cc3cc(CN[C@H]4CCc5ccccc5C4)ccc3C2=O)C(=O)N1` (stereo partly drawn) [Example 13, 3-(1-oxo-5-((((S)-1,2,3,4-tetrahydronaphthalen-2-yl)amino)methyl)isoindolin-2-yl)piperidine-2,6-dione]: the Dmax on IKZF1 came out at 48%; on IKZF2 it was 73%. The DC50 at IKZF1 amounted to 31 nM; on IKZF2, 23 nM.
For `O=C1CCC(N2Cc3cc(CN[C@@H]4CCc5ccccc5C4)ccc3C2=O)C(=O)N1` (stereo partly drawn) [Example 14, 3-(1-oxo-5-((((R)-1,2,3,4-tetrahydronaphthalen-2-yl)amino)methyl)isoindolin-2-yl)piperidine-2,6-dione], the Dmax at IKZF1 was 35%; at IKZF2, 43%. Besides, the DC50 turned out to be 23 nM at IKZF1 and 48 nM at IKZF2.
As for `O=C1CCC(N2Cc3cc(CNC45CC(C4)C5)ccc3C2=O)C(=O)N1` (stereo not shown) [Example 15, 3-(5-((bicyclo[1.1.1]pentan-1-ylamino)methyl)-1-oxoisoindolin-2-yl)piperidine-2,6-dione], at IKZF1, the DC50 was over 10000 nM. Further, on IKZF2, the Dmax was 29% and the DC50 was 1800 nM.
Take `C[C@@H](NCc1ccc2c(c1)CN(C1CCC(=O)NC1=O)C2=O)c1ccccc1` (stereo partly drawn) [Example 16, 3-(1-oxo-5-((((R)-1-phenylethyl)amino)methyl)isoindolin-2-yl)piperidine-2,6-dione]: on IKZF1, the Dmax is 71% and the DC50 was found to be 41 nM. Further, on IKZF2, the Dmax is 54% and the DC50 was 260 nM.
For `O=C1CCC(N2Cc3cc(CN[C@H]4CCOc5ccccc54)ccc3C2=O)C(=O)N1` (stereo partly drawn) [Example 17, 3-(5-((((S)-chroman-4-yl)amino)methyl)-1-oxoisoindolin-2-yl)piperidine-2,6-dione], in that order: 65%, 31 nM, 48% and 230 nM.
As to `CN(Cc1ccc2c(c1)CN(C1CCC(=O)NC1=O)C2=O)C1CCN(Cc2ccccc2)CC1` (stereo not shown) [Example 18, 3-(5-(((1-benzylpiperidin-4-yl)(methyl)amino)methyl)-1-oxoisoindolin-2-yl)piperidine-2,6-dione], the DC50 at IKZF1 is over 10000 nM; at IKZF2, 328 nM. Besides, on IKZF2, the Dmax was 21%.
As to `O=C1CCC(N2Cc3cc(CN[C@H]4CCN(Cc5ccccc5)C4)ccc3C2=O)C(=O)N1` (stereo partly drawn) [Example 19, 3-(5-((((S)-1-benzylpyrrolidin-3-yl)amino)methyl)-1-oxoisoindolin-2-yl)piperidine-2,6-dione], the Dmax at IKZF1 was determined as 46%; on IKZF2 it was 52%. Besides, the DC50 on IKZF1 is 122 nM; on IKZF2, 442 nM.
On to `O=C1CCC(N2Cc3cc(CN[C@@H]4CCCN(Cc5ccccc5)C4)ccc3C2=O)C(=O)N1` (stereo partly drawn) [Example 20, 3-(5-((((R)-1-benzylpiperidin-3-yl)amino)methyl)-1-oxoisoindolin-2-yl)piperidine-2,6-dione], for which, at IKZF1, the Dmax was 95% and the DC50 is 7 nM. Besides, at IKZF2, the Dmax turned out to be 97% and the DC50 worked out at 32 nM.

Source of the values: patent publication US20240124412A1, “IKAROS ZINC FINGER FAMILY DEGRADERS AND USES THEREOF” (Gilead Sciences, Inc., priority 2021, published 2024).
